Assay results published in PMC8286840, “Identifying SARS-CoV-2 antiviral compounds by screening for small molecule inhibitors of Nsp3 papain-like protease” (Biochemical Journal, 2021).
Where two headings read alike, the source gives them in different places.

What was measured:
[1] = molecular target: T1, SARS-CoV-2 PLpro (nsp3 1564–1878) (Severe acute respiratory syndrome coronavirus 2, UniProt P0DTD1); assay: biochemical; set-up: FRET-quenched peptide (Pro3) cleavage by PLpro, 10 min pre-incubation, slope over 20 min, normalised to no-compound control; settings: read-out: % of control remaining
[2] = molecular target: T1, SARS-CoV-2 PLpro (nsp3 1564–1878); assay: biochemical; set-up: FRET-quenched peptide (Pro3) cleavage by PLpro, 10 min pre-incubation, slope over 20 min, normalised to no-compound control; settings: read-out: % of control remaining; remark: listed apart in the source

## CCCCCCCCCCCCc1ccc(S(=O)(=O)Nc2nncs2)cc1 [PHT-427]
[1]; Well no.=4959, low concentration screen
  remaining activity at 1.25 µM: 96.5%
[2]; Well no.=4959, high concentration screen
  remaining activity at 3.75 µM: 98.1%

## Oc1ccc(-c2c(-c3ccccc3)nn3c(C(F)(F)F)cc(C(F)(F)F)nc23)cc1 [PHTPP]
[1]
  remaining activity at 1.25 µM: 103%
[2]
  remaining activity at 3.75 µM: 101%

## COc1cc(Nc2nc3ccccc3nc2NS(=O)(=O)c2ccc(NC(=O)c3ccc(C)c(OC)c3)cc2)cc(OC)c1 [PI3K-IN-1]
[1]; Well no.=8600, low concentration screen
  remaining activity at 1.25 µM: 102%
[2]; Well no.=8600, high concentration screen
  remaining activity at 3.75 µM: 97.8%

## O=C1NC(=O)/C(=C/c2ccc3nccnc3c2)S1 [PI 3-Kg Inhibitor]
[1]; Well no.=2515, low concentration screen
  remaining activity at 1.25 µM: 99.9%
[2]; Well no.=2515, high concentration screen
  remaining activity at 3.75 µM: 106%

## Nc1ccc(-c2cccc3c(=O)cc(N4CCOCC4)oc23)cc1 [PI 828 - 2-(4-Morpholinyl)-8-(4-aminopheny)l-4H-1-benzopyran-4-one]
[1]; Well no.=2628, low concentration screen
  remaining activity at 1.25 µM: 98.1%
[2]; Well no.=2628, high concentration screen
  remaining activity at 3.75 µM: 102%

## Oc1cccc(-c2nc(N3CCOCC3)c3oc4ncccc4c3n2)c1 [PI-103]
[1]; Well no.=2367, low concentration screen
  remaining activity at 1.25 µM: 100%
[2]; Well no.=2367, high concentration screen
  remaining activity at 3.75 µM: 100%

## CCCc1ccc(OCC(=O)N(Cc2nc(-c3cccnc3)no2)C(C)C)cc1 [PI-1840]
[1]; Well no.=8718, low concentration screen
  remaining activity at 1.25 µM: 94.8%
[2]; Well no.=8718, high concentration screen
  remaining activity at 3.75 µM: 98.4%

## Cc1ccc([N+](=O)[O-])cc1S(=O)(=O)N(C)/N=C/c1cnc2ccc(Br)cn12 [PIK 75]
[1]; Well no.=2993, low concentration screen
  remaining activity at 1.25 µM: 96.4%
[2]; Well no.=2993, high concentration screen
  remaining activity at 3.75 µM: 96.1%

## COc1ccc2c3n(c(=NC(=O)c4cccnc4)nc2c1OC)CCN3 [PIK-90]
[1]; Well no.=2747, low concentration screen
  remaining activity at 1.25 µM: 91.2%
[2]; Well no.=2747, high concentration screen
  remaining activity at 3.75 µM: 95%

## CC(=O)Nc1nc(C)c(-c2ccc(Cl)c(S(=O)(=O)NCCO)c2)s1 [PIK-93]
[1]; Well no.=4911, low concentration screen
  remaining activity at 1.25 µM: 95.7%
[2]; Well no.=4911, high concentration screen
  remaining activity at 3.75 µM: 96.9%

## CCCOc1ccc(/C=C2/SC(=O)NC2=O)cc1 [PIM1/2 Kinase Inhibitor VI]
[1]; Well no.=2571, low concentration screen
  remaining activity at 1.25 µM: 97.6%
[2]; Well no.=2571, high concentration screen
  remaining activity at 3.75 µM: 97%

## CN(C)CC(=O)Nc1ccc2[nH]c(=O)c3ccccc3c2c1 [PJ-34]
[1]; Well no.=906, low concentration screen
  remaining activity at 1.25 µM: 99.3%
[2]; Well no.=906, high concentration screen
  remaining activity at 3.75 µM: 95.6%

## Cc1nnc(NC(=O)c2nc(S(=O)(=O)Cc3ccc(F)cc3)ncc2Cl)s1 [PK11007]
[1]; Well no.=6834, low concentration screen
  remaining activity at 1.25 µM: 86.8%
[2]; Well no.=6834, high concentration screen
  remaining activity at 3.75 µM: 87.8%

## CCC(C)N(C)C(=O)c1cc2ccccc2c(-c2ccccc2Cl)n1 (stereo not shown) [PK 11195]
[1]; Well no.=185, low concentration screen
  remaining activity at 1.25 µM: 99.9%
[2]; Well no.=185, high concentration screen
  remaining activity at 3.75 µM: 98.2%

## C[C@@H](Nc1ncnc2[nH]c(-c3ccc(O)cc3)cc12)c1ccccc1 [PKI-166]
[1]; Well no.=6037, low concentration screen
  remaining activity at 1.25 µM: 94.4%
[2]; Well no.=6037, high concentration screen
  remaining activity at 3.75 µM: 78.3%

## CCn1nnc2c(N3CCOCC3)nc(-c3ccc(NC(=O)Nc4ccc(C(=O)N5CCN(C)CC5)cc4)cc3)nc21 [PKI-402]
[1]; Well no.=4699, low concentration screen
  remaining activity at 1.25 µM: 105%
[2]; Well no.=4699, high concentration screen
  remaining activity at 3.75 µM: 101%

## O=C1Nc2ccc(Cl)cc2/C1=C/c1cc(Cl)c(O)c(Cl)c1 [PKR Inhibitor, Negative Control]
[1]; Well no.=2513, low concentration screen
  remaining activity at 1.25 µM: 96.5%
[2]; Well no.=2513, high concentration screen
  remaining activity at 3.75 µM: 99%

## O=C1Nc2ccc3ncsc3c2/C1=C/c1cnc[nH]1 [PKR Inhibitor]
[1]; Well no.=2511, low concentration screen
  remaining activity at 1.25 µM: 103%
[2]; Well no.=2511, high concentration screen
  remaining activity at 3.75 µM: 103%

## CCCS(=O)(=O)Nc1ccc(F)c(C(=O)c2c[nH]c3ncc(Cl)cc23)c1F [PLX4720]
[1]; Well no.=2795, low concentration screen
  remaining activity at 1.25 µM: 97.5%
[2]; Well no.=2795, high concentration screen
  remaining activity at 3.75 µM: 99.9%

## O=C(O)CCC(CP(=O)(O)O)C(=O)O (stereo not shown) [PMPA tetrasodium]
[1]; Well no.=1219, low concentration screen
  remaining activity at 1.25 µM: 105%
[2]; Well no.=1219, high concentration screen
  remaining activity at 3.75 µM: 103%

## Nc1cc(Nc2ccc(S(N)(=O)=O)cc2)ncn1 [PNU112455A]
[1]; Well no.=5446, low concentration screen
  remaining activity at 1.25 µM: 100%
[2]; Well no.=5446, high concentration screen
  remaining activity at 3.75 µM: 102%

## COc1cc(OC)c(NC(=O)Nc2cc(C)on2)cc1Cl [PNU-120596]
[1]; Well no.=4964, low concentration screen
  remaining activity at 1.25 µM: 98.4%
[2]; Well no.=4964, high concentration screen
  remaining activity at 3.75 µM: 92.3%

## CC(C)(C)n1nc(-c2ccc(Cl)cc2)c2c(N)ncnc21 [PP 2 - 3-(4-chlorophenyl) 1-(1,1-dimethylethyl)-1H-pyrazolo[3,4-d]pyrimidin-4-amine]
[1]; Well no.=2428, low concentration screen
  remaining activity at 1.25 µM: 98.1%
[2]; Well no.=2428, high concentration screen
  remaining activity at 3.75 µM: 101%

## Nc1ncnc2c1c(-c1cnc3[nH]ccc3c1)nn2C1CCCC1 [PP-121]
[1]; Well no.=4958, low concentration screen
  remaining activity at 1.25 µM: 91%
[2]; Well no.=4958, high concentration screen
  remaining activity at 3.75 µM: 92.2%

## Cc1nc(N=Nc2ccc(S(=O)(=O)O)cc2S(=O)(=O)O)c(COP(=O)(O)O)c(C=O)c1O [PPADS]
[1]; Well no.=1217, low concentration screen
  remaining activity at 1.25 µM: 102%
[2]; Well no.=1217, high concentration screen
  remaining activity at 3.75 µM: 101%

## Cc1nc(N=Nc2cc(S(=O)(=O)O)c3cc([N+](=O)[O-])cc(S(=O)(=O)O)c3c2)c(COP(=O)(O)O)c(C=O)c1O [PPNDS tetrasodium]
[1]; Well no.=1048, low concentration screen
  remaining activity at 1.25 µM: 102%
[2]; Well no.=1048, high concentration screen
  remaining activity at 3.75 µM: 103%

## O=C(OCCN1CCOCC1)C1(c2ccccc2)CCCCC1 [PRE-084]
[1]; Well no.=1000, low concentration screen
  remaining activity at 1.25 µM: 98.1%
[2]; Well no.=1000, high concentration screen
  remaining activity at 3.75 µM: 100%

## COCC1(CO)C(=O)C2CCN1CC2 (stereo not shown) [PRIMA-1Met]
[1]; Well no.=6212, low concentration screen
  remaining activity at 1.25 µM: 101%
[2]; Well no.=6212, high concentration screen
  remaining activity at 3.75 µM: 99.5%

## O=C1C2CCN(CC2)C1(CO)CO [PRIMA-1]
[1]; Well no.=6486, low concentration screen
  remaining activity at 1.25 µM: 96.7%
[2]; Well no.=6486, high concentration screen
  remaining activity at 3.75 µM: 97.6%

## N#Cc1cc(CN2CCC(Nc3ncnc4sc(Cl)cc34)CC2)ccc1F [PRX-08066]
[1]; Well no.=4792, low concentration screen
  remaining activity at 1.25 µM: 101%
[2]; Well no.=4792, high concentration screen
  remaining activity at 3.75 µM: 97.9%

## O=P(O)(O)CP(=O)(O)OC[C@H]1O[C@@H](n2cnc3c(NCc4ccccc4)ncnc32)[C@H](O)[C@@H]1O [PSB-12379]
[1]; Well no.=8745, low concentration screen
  remaining activity at 1.25 µM: 105%
[2]; Well no.=8745, high concentration screen
  remaining activity at 3.75 µM: 105%

## C[C@@]1(F)[C@H](O)[C@@H](CO)O[C@H]1n1ccc(N)nc1=O [PSI-6130]
[1]; Well no.=7764, low concentration screen
  remaining activity at 1.25 µM: 107%
[2]; Well no.=7764, high concentration screen
  remaining activity at 3.75 µM: 100%

## C[C@@]1(F)[C@H](O)[C@@H](CO)O[C@H]1n1ccc(=O)[nH]c1=O [PSI-6206]
[1]; Well no.=7710, low concentration screen
  remaining activity at 1.25 µM: 92.6%
[2]; Well no.=7710, high concentration screen
  remaining activity at 3.75 µM: 87.5%

## CCCCC1CCC(c2nc(-c3ccncc3)no2)CC1 (stereo not shown) [PSN-375963]
[1]; Well no.=5398, low concentration screen
  remaining activity at 1.25 µM: 106%
[2]; Well no.=5398, high concentration screen
  remaining activity at 3.75 µM: 106%

## O=C(Nc1ccc(Cl)cc1)Nc1cccc(-c2cccc(N3CCCC3)n2)c1 [PSNCBAM-1]
[1]; Well no.=5820, low concentration screen
  remaining activity at 1.25 µM: 105%
[2]; Well no.=5820, high concentration screen
  remaining activity at 3.75 µM: 97%

## Cc1nc2cc(F)c(F)cc2n1-c1cncc(Nc2ccc(C(F)(F)F)cc2)n1 [PTC-028]
[1]; Well no.=7024, low concentration screen
  remaining activity at 1.25 µM: 106%
[2]; Well no.=7024, high concentration screen
  remaining activity at 3.75 µM: 96.8%

## COc1cc(Br)c(Nc2nc(-c3c(C)nc4ncccn34)cs2)c(Br)c1 [PTC-209]
[1]; Well no.=5643, low concentration screen
  remaining activity at 1.25 µM: 94.3%
[2]; Well no.=5643, high concentration screen
  remaining activity at 3.75 µM: 95%

## CC(C)NCCCn1c(Sc2cc3c(cc2I)OCO3)nc2c(N)ncnc21 [PU-H71]
[1]; Well no.=8772, low concentration screen
  remaining activity at 1.25 µM: 98.2%
[2]; Well no.=8772, high concentration screen
  remaining activity at 3.75 µM: 95.7%
